Data as given in US20150065345A1, “1,2,4 - TRIAZOLE DERIVATIVES AS HERBICIDALS” (SYNGENTA LIMITED, priority 2012, published 2015).

Key:
Format in all cases: in vivo
Solanum nigrum (SOLNI) [1] = assay: Glasshouse herbicide test, pre-emergence; settings: 1000 g/h, evaluated after 13 days, five point scale
Method: (§1) Seeds of a variety of test species are sown in standard soil in pots Alopecurus myosuroides (ALOMY), Amaranthus retoflexus (AMARE), Setaria faberi (SETFA), Echinochloa crus-galli (ECHCG), Lolium perenne (LOLPE), Solanum nigrum (SOLNI), Stellaria media (STEME) and Digitaria sanguinalis (DIGSA). After cultivation for one day (pre-emergence) or after 8 days cultivation (post-emergence) under controlled conditions in a glasshouse (at 24/16° C., day/night; 14 hours light; 65% humidity), the plants are sprayed with an aqueous spray solution derived from the formulation of the technical active ingredient in acetone/water (50:50) solution containing 0.5% Tween 20 (polyoxyethelyene sorbitan monolaurate, CAS RN 9005-64-5). Compounds are applied at 1000 g/h. The test plants are then grown in a glasshouse under controlled conditions in a glasshouse (at 24/16° C., day/night; 14 hours light; 65% humidity) and watered twice daily. After 13 days for pre and post-emergence, the test is evaluated for the percentage damage caused to the plant. The biological activities are shown in the following table on a five point scale (5=80-100%; 4=60-79%; 3=40-59%; 2=20-39%; 1=0-19%).

[2] = test system: Echinochloa crus-galli (ECHCG); assay: Glasshouse herbicide test, pre-emergence; settings: 1000 g/h, evaluated after 13 days, five point scale
Method: as §1

[3] = test system: Alopecurus myosuroides (ALOMY); assay: Glasshouse herbicide test, pre-emergence; settings: 1000 g/h, evaluated after 13 days, five point scale
Method: as §1

IPOHE [4] = assay: Glasshouse herbicide test, pre-emergence; settings: 1000 g/h, evaluated after 13 days, five point scale
Method: [The procedure below names another species; the source lists this species under the same test.] as §1

Setaria faberi (SETFA) [5] = assay: Glasshouse herbicide test, pre-emergence; settings: 1000 g/h, evaluated after 13 days, five point scale
Method: as §1

[6] = test system: Amaranthus retoflexus (AMARE); assay: Glasshouse herbicide test, pre-emergence; settings: 1000 g/h, evaluated after 13 days, five point scale, second table
Method: as §1

Solanum nigrum (SOLNI) [7] = assay: Glasshouse herbicide test, post-emergence; settings: 1000 g/h, evaluated after 13 days, five point scale
Method: as §1

[8] = test system: Echinochloa crus-galli (ECHCG); assay: Glasshouse herbicide test, post-emergence; settings: 1000 g/h, evaluated after 13 days, five point scale
Method: as §1

[9] = test system: Alopecurus myosuroides (ALOMY); assay: Glasshouse herbicide test, post-emergence; settings: 1000 g/h, evaluated after 13 days, five point scale
Method: as §1

IPOHE [10] = assay: Glasshouse herbicide test, post-emergence; settings: 1000 g/h, evaluated after 13 days, five point scale
Method: [The procedure below names another species; the source lists this species under the same test.] as §1

Setaria faberi (SETFA) [11] = assay: Glasshouse herbicide test, post-emergence; settings: 1000 g/h, evaluated after 13 days, five point scale
Method: as §1

[12] = test system: Amaranthus retoflexus (AMARE); assay: Glasshouse herbicide test, post-emergence; settings: 1000 g/h, evaluated after 13 days, five point scale, second table
Method: as §1

Row | SMILES | percentage damage caused to the plant, SOLNI, PRE Application (Solanum nigrum (SOLNI) [1]) | percentage damage caused to the plant, ECHCG, PRE Application [2] | percentage damage caused to the plant, ALOMY, PRE Application [3] | percentage damage caused to the plant, IPOHE, PRE Application (IPOHE [4]) | percentage damage caused to the plant, SETFA, PRE Application (Setaria faberi (SETFA) [5]) | percentage damage caused to the plant, AMARE, PRE Application [6] | percentage damage caused to the plant, SOLNI, POST Application (Solanum nigrum (SOLNI) [7]) | percentage damage caused to the plant, ECHCG, POST Application [8] | percentage damage caused to the plant, ALOMY, POST Application [9] | percentage damage caused to the plant, IPOHE, POST Application (IPOHE [10]) | percentage damage caused to the plant, SETFA, POST Application (Setaria faberi (SETFA) [11]) | percentage damage caused to the plant, AMARE, POST Application [12]
1 | Cn1cnnc1NC(=O)c1ccc(C(F)(F)F)cc1S(C)(=O)=O [Compound 1.008] | 5 (5=80-100%) | 5 (5=80-100%) | 2 (2=20-39%) | 4 (4=60-79%) | 3 (3=40-59%) | 5 (5=80-100%) | 5 (5=80-100%) | 4 (4=60-79%) | 3 (3=40-59%) | 5 (5=80-100%) | 3 (3=40-59%) | 5 (5=80-100%)
2 | Cc1nnc(NC(=O)c2ccc(C(F)(F)F)cc2S(C)(=O)=O)n1C [Compound 1.009] | 2 (2=20-39%) | 1 (1=0-19%) | 1 (1=0-19%) | 1 (1=0-19%) | 1 (1=0-19%) | 4 (4=60-79%) | 4 (4=60-79%) | 1 (1=0-19%) | 2 (2=20-39%) | 3 (3=40-59%) | 1 (1=0-19%) | 2 (2=20-39%)
3 | CCc1nnc(NC(=O)c2ccc(C(F)(F)F)cc2S(C)(=O)=O)n1C [Compound 1.010] | 1 (1=0-19%) | 1 (1=0-19%) | 1 (1=0-19%) | 1 (1=0-19%) | 1 (1=0-19%) | 1 (1=0-19%) | 2 (2=20-39%) | 2 (2=20-39%) | 2 (2=20-39%) | 2 (2=20-39%) | 2 (2=20-39%) | 1 (1=0-19%)
4 | CCn1cnnc1NC(=O)c1ccc(C(F)(F)F)cc1S(C)(=O)=O [Compound 1.011] | 5 (5=80-100%) | 4 (4=60-79%) | 1 (1=0-19%) | 4 (4=60-79%) | 2 (2=20-39%) | 5 (5=80-100%) | 5 (5=80-100%) | 4 (4=60-79%) | 2 (2=20-39%) | 5 (5=80-100%) | 2 (2=20-39%) | 5 (5=80-100%)
5 | CCc1nnc(NC(=O)c2ccc(S(C)(=O)=O)c(COCC(F)(F)F)c2Cl)n1C [Compound 1.013] | 1 (1=0-19%) | 1 (1=0-19%) | 1 (1=0-19%) | 1 (1=0-19%) | 1 (1=0-19%) | 1 (1=0-19%) | 2 (2=20-39%) | 1 (1=0-19%) | 2 (2=20-39%) | 1 (1=0-19%) | 1 (1=0-19%) | 1 (1=0-19%)
6 | CCn1cnnc1NC(=O)c1ccc(S(C)(=O)=O)c(COCC(F)(F)F)c1Cl [Compound 1.014] | 5 (5=80-100%) | 5 (5=80-100%) | 5 (5=80-100%) | 5 (5=80-100%) | 5 (5=80-100%) | 5 (5=80-100%) | 5 (5=80-100%) | 5 (5=80-100%) | 5 (5=80-100%) | 5 (5=80-100%) | 5 (5=80-100%) | 5 (5=80-100%)
7 | CCn1c(C)nnc1NC(=O)c1ccc(S(C)(=O)=O)c(COCC(F)(F)F)c1Cl [Compound 1.015] | 4 (4=60-79%) | 1 (1=0-19%) | 1 (1=0-19%) | 2 (2=20-39%) | 1 (1=0-19%) | 4 (4=60-79%) | 4 (4=60-79%) | 2 (2=20-39%) | 2 (2=20-39%) | 4 (4=60-79%) | 1 (1=0-19%) | 4 (4=60-79%)
8 | Cn1cnnc1NC(=O)c1cc(F)c(F)cc1[N+](=O)[O-] [Compound 2.003] | 1 (1=0-19%) | 1 (1=0-19%) | 1 (1=0-19%) | 1 (1=0-19%) | 1 (1=0-19%) | 1 (1=0-19%) | 1 (1=0-19%) | 1 (1=0-19%) | 1 (1=0-19%) | 1 (1=0-19%) | 1 (1=0-19%) | 1 (1=0-19%)
9 | Cc1ccc([N+](=O)[O-])c(C(=O)Nc2nncn2C)c1 [Compound 2.005] | 2 (2=20-39%) | 1 (1=0-19%) | 1 (1=0-19%) | 3 (3=40-59%) | 1 (1=0-19%) | 2 (2=20-39%) | 4 (4=60-79%) | 1 (1=0-19%) | 1 (1=0-19%) | 4 (4=60-79%) | 1 (1=0-19%) | 4 (4=60-79%)
